Test results: patent US10954252B1, “Inhibitors of human immunodeficiency virus replication” (ViiV HEALTHCARE UK (NO.5) LIMITED, priority 2017, dated 2021)

Legend:
[1] = test system: recombinant NL4-3 virus (nef section replaced with Renilla luciferase gene) in MT-2 cells; assay: HIV cell culture assay (antiviral activity, luciferase readout); format: cell-based; settings: MT-2 cells infected for 4-5 days with recombinant NL4-3 luciferase virus
How it was run: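 Serially diluted compounds were present throughout a 4-5 day infection of MT-2 cells by recombinant NL4-3 whose nef region partly encodes Renilla luciferase. Antiviral activity was taken from live-cell luciferase signal, with the 50% effective concentration fitted by the exponential median effect equation.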

[2] = Compound cytotoxicity, XTT-based colorimetric assay; format: cell-based; settings: human, uninfected MT2 cells
How it was run: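 XTT colorimetric read-out on day 4 gave CC50 values, using MT2 cells left uninfected but otherwise handled as in the antiviral assay.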

| SMILES | EC50 ([1]; Table 1a) [nM] | CC50 at 4 days ([2]; Table 1a, day 4, XTT) [nM] | EC50 ([1]; Renilla, NL43, Table 1a) [nM] | EC50 ([1]; Renilla, NL43, Table 1) [nM] | CC50 at 4 days ([2]; Table 1, day 4, XTT) [nM] |
| --- | --- | --- | --- | --- | --- |
| COc1cc(F)c2c(=O)n(-c3ccc(Cl)c4c(NS(C)(=O)=O)nn(C)c34)c([C@H](Cc3cc(F)cc(F)c3)NC(=O)Cn3nc(C(F)F)c4c3C(F)(F)[C@@H]3C[C@H]43)nc2c1 (single isomer, unassigned) [Example 186] | 0.072 | > 1000 |  |  |  |
| COc1cc(F)c2c(=O)n(-c3ccc(Cl)c4c(NS(C)(=O)=O)nn(C)c34)c([C@H](Cc3cc(F)cc(F)c3)NC(=O)Cn3ccc(C4CC4)n3)nc2c1 (single isomer, unassigned) [Example 189] | 6.46 | > 1000 |  |  |  |
| COc1ccc2c(=O)n(-c3ccc(Cl)c4c(NS(C)(=O)=O)nn(CC(F)F)c34)c([C@H](Cc3cc(F)cc(F)c3)NC(=O)Cn3nc(C(F)F)c4c3C(F)(F)[C@@H]3C[C@H]43)nc2c1 (single isomer, unassigned) [Example 191] |  | > 1000 | 0.06 |  |  |
| COc1ccc2c(=O)n(-c3ccc(Cl)c4c(NS(=O)(=O)C5CC5)nn(CC(F)F)c34)c([C@H](Cc3cc(F)cc(F)c3)NC(=O)Cn3nc(C(F)F)c4c3C(F)(F)[C@@H]3C[C@H]43)nc2c1 (single isomer, unassigned) [Example 192] |  | > 1000 | 0.04 |  |  |
| Cn1nc(NS(C)(=O)=O)c2c(Cl)ccc(-n3c([C@H](Cc4cc(F)cc(F)c4)NC(=O)Cn4nc(C(F)F)c5c4C(F)(F)[C@@H]4C[C@H]54)nc4cc(C(C)(F)F)ccc4c3=O)c21 (single isomer, unassigned) [Example 196] |  | > 1000 | 0.081 |  |  |
| Cn1nc(NS(C)(=O)=O)c2c(Cl)ccc(-n3c([C@H](Cc4cc(F)cc(F)c4)NC(=O)Cn4ccc(C5CC5)n4)nc4cc(C(C)(C)S(C)(=O)=O)ccc4c3=O)c21 (single isomer, unassigned) [Example 212] |  | > 1000 | 0.63 |  |  |
| Cn1nc(NS(C)(=O)=O)c2c(Cl)ccc(-n3c(C(Cc4cc(F)cc(F)c4)NC(=O)Cn4nc(C(F)F)c5c4C(F)(F)C4CC54)nc4nc(Cl)ccc4c3=O)c21 (stereo in doubt) [Example 12.1, N—((S)-1-(7-chloro-3-(4-chloro-1-methyl-3-(methylsulfonamido)-1H-indazol-7-yl)-4-oxo-3,4-dihydropyrido[2,3-d]pyrimidin-2-yl)-2-(3,5-difluorophenyl)ethyl)-2-((3bS,4aR)-3-(difluoromethyl)-5,5-difluoro-3b,4,4a,5-tetrahydro-1H-cyclopropa[3,4]cyclopenta[1,2-c]pyrazol-1-yl)acetamide] |  |  |  | 4310 | > 10000 |
| COc1ccc2c(=O)n(-c3ccc(Cl)c4c(NS(C)(=O)=O)nn(C)c34)c(C(Cc3cc(F)cc(F)c3)NC(=O)Cn3nc(C(F)F)c4c3C(F)(F)C3CC43)nc2n1 (stereo in doubt) [Example 13.1, N—((S)-1-(3-(4-chloro-1-methyl-3-(methylsulfonamido)-1H-indazol-7-yl)-7-methoxy-4-oxo-3,4-dihydropyrido[2,3-d]pyrimidin-2-yl)-2-(3,5-difluorophenyl)ethyl)-2-((3bS,4aR)-3-(difluoromethyl)-5,5-difluoro-3b,4,4a,5-tetrahydro-1H-cyclopropa[3,4]cyclopenta[1,2-c]pyrazol-1-yl)acetamide] |  |  |  | 14300 | > 10000 |
| COc1ccc2c(=O)n(-c3ccc(Cl)c4c(NS(C)(=O)=O)nn(C)c34)c([C@H](Cc3cc(F)cc(F)c3)NC(=O)Cn3nc(C(F)F)c4c3C(F)(F)C3CC43)nc2n1 (stereo in doubt) [Example 13.2, N—((S)-1-(3-(4-chloro-1-methyl-3-(methylsulfonamido)-1H-indazol-7-yl)-7-methoxy-4-oxo-3,4-dihydropyrido[2,3-d]pyrimidin-2-yl)-2-(3,5-difluorophenyl)ethyl)-2-((3bS,4aR)-3-(difluoromethyl)-5,5-difluoro-3b,4,4a,5-tetrahydro-1H-cyclopropa[3,4]cyclopenta[1,2-c]pyrazol-1-yl)acetamide] |  |  |  | 18 | > 10000 |
| Cn1nc(NS(C)(=O)=O)c2c(Cl)ccc(-c3cc4scnc4nc3C(Cc3cc(F)cc(F)c3)NC(=O)Cc3c[nH]c4ccc(O)cc34)c21 (stereo not drawn) [Example 1.7, N-(1-(6-(4-chloro-1-methyl-3-(methylsulfonamido)-1H-indazol-7-yl)thiazolo[4,5-b]pyridin-5-yl)-2-(3,5-difluorophenyl)ethyl)-2-(5-hydroxy-1H-indol-3-yl)acetamide] |  |  |  | 11 | > 100000 |
| Cn1nc(NS(C)(=O)=O)c2c(Cl)ccc(-c3cc4[nH]ncc4nc3[C@H](Cc3cc(F)cc(F)c3)NC(=O)Cn3nc(C(F)F)c4c3C(F)(F)[C@@H]3C[C@H]43)c21 [Example 3.7, N—((S)-1-(6-(4-chloro-1-methyl-3-(methylsulfonamido)-1H-indazol-7-yl)-1H-pyrazolo[4,3-b]pyridin-5-yl)-2-(3,5-difluorophenyl)ethyl)-2-((3bS,4aR)-3-(difluoromethyl)-5,5-difluoro-3b,4,4a,5-tetrahydro-1H-cyclopropa[3,4]cyclopenta[1,2-c]pyrazol-1-yl)acetamide] |  |  |  | 1.2 | 33900 |
| Cn1nc(NS(C)(=O)=O)c2c(Cl)ccc(-c3cc4[nH]ncc4nc3[C@@H](Cc3cc(F)cc(F)c3)NC(=O)Cn3nc(C(F)F)c4c3C(F)(F)[C@@H]3C[C@H]43)c21 [Example 3.8, N—((R)-1-(6-(4-chloro-1-methyl-3-(methylsulfonamido)-1H-indazol-7-yl)-1H-pyrazolo[4,3-b]pyridin-5-yl)-2-(3,5-difluorophenyl)ethyl)-2-((3bS,4aR)-3-(difluoromethyl)-5,5-difluoro-3b,4,4a,5-tetrahydro-1H-cyclopropa[3,4]cyclopenta[1,2-c]pyrazol-1-yl)acetamide] |  |  |  | 21 | 10200 |
| COc1ccc(-n2c([C@H](Cc3cc(F)cc(F)c3)NC(=O)Cn3nc(C(F)F)c4c3C(F)(F)[C@@H]3C[C@H]43)nc3ncccc3c2=O)cc1 [Example 9.1, 2-((3bS,4aR)-3-(difluoromethyl)-5,5-difluoro-3b,4,4a,5-tetrahydro-1H-cyclopropa[3,4]cyclopenta[1,2-c]pyrazol-1-yl)-N—((S)-2-(3,5-difluorophenyl)-1-(3-(4-methoxyphenyl)-4-oxo-3,4-dihydropyrido[2,3-d]pyrimidin-2-yl)ethyl)acetamide] |  |  |  | 6.1 | 8100 |
| COc1ccc(-n2c([C@H](Cc3cc(F)cc(F)c3)NC(=O)Cc3c[nH]c4ccc(O)cc34)nc3ncccc3c2=O)cc1 [Example 9.2, (S)—N-(2-(3,5-difluorophenyl)-1-(3-(4-methoxyphenyl)-4-oxo-3,4-dihydropyrido[2,3-d]pyrimidin-2-yl)ethyl)-2-(5-hydroxy-1H-indol-3-yl)acetamide] |  |  |  | 4.7 | > 10000 |
| N#Cc1cccc(-c2cc3[nH]ncc3nc2[C@H](Cc2cc(F)cc(F)c2)NC(=O)Cn2nc(C(F)F)c3c2C(F)(F)[C@@H]2C[C@H]32)c1 [Example 10.2, N—((S)-1-(6-(3-cyanophenyl)-1H-pyrazolo[4,3-b]pyridin-5-yl)-2-(3,5-difluorophenyl)ethyl)-2-((3bS,4aR)-3-(difluoromethyl)-5,5-difluoro-3b,4,4a,5-tetrahydro-1H-cyclopropa[3,4]cyclopenta[1,2-c]pyrazol-1-yl)acetamide] |  |  |  | 460 | 9700 |
